Active and inactive are the calls of the source. No cut-off for these calls is given here.
Key:
Type in all cases: functional, organism-based
[1] = system: Mycobacterium tuberculosis; experiment: Bactericidal activity against 5-day old actively replicating Mycobacterium tuberculosis H37Rv in aerobic condition at 1 ug/ml after 1 day by Wayne dormancy culture model
[2] = system: Mycobacterium tuberculosis; experiment: Bactericidal activity against 5-day old actively replicating Mycobacterium tuberculosis H37Rv in aerobic condition at 1 ug/ml after 4 days by Wayne dormancy culture model
[3] = system: Mycobacterium tuberculosis; experiment: Bactericidal activity against 5-day old actively replicating Mycobacterium tuberculosis H37Rv in aerobic condition at 1 ug/ml after 11 days by Wayne dormancy culture model
[4] = system: Mycobacterium tuberculosis; experiment: Bactericidal activity against 19-day old non-replicating Mycobacterium tuberculosis H37Rv in anaerobic condition at 1 ug/ml after 1 day by Wayne dormancy culture model
[5] = system: Mycobacterium tuberculosis; experiment: Bactericidal activity against 19-day old non-replicating Mycobacterium tuberculosis H37Rv in anaerobic condition at 1 ug/ml after 4 days by Wayne dormancy culture model
[6] = system: Mycobacterium tuberculosis; experiment: Bactericidal activity against 19-day old non-replicating Mycobacterium tuberculosis H37Rv in anaerobic condition at 1 ug/ml after 11 days by Wayne dormancy culture model
[7] = system: Mycobacterium tuberculosis; experiment: Bactericidal activity against 26-day old non-replicating Mycobacterium tuberculosis H37Rv at 1 ug/ml after 1 day by Wayne in anaerobic condition dormancy culture model
[8] = system: Mycobacterium tuberculosis; experiment: Bactericidal activity against 26-day old non-replicating Mycobacterium tuberculosis H37Rv in anaerobic condition at 1 ug/ml after 4 days by Wayne dormancy culture model
[9] = system: Mycobacterium tuberculosis; experiment: Bactericidal activity against 26-day old non-replicating Mycobacterium tuberculosis H37Rv in anaerobic condition at 1 ug/ml after 11 days by Wayne dormancy culture model
[10] = system: Mycobacterium tuberculosis; experiment: Bactericidal activity against 12-day old non-replicating Mycobacterium tuberculosis H37Rv in anaerobic condition at 1 ug/ml after 1 day by Wayne dormancy culture model
[11] = system: Mycobacterium tuberculosis; experiment: Bactericidal activity against 12-day old non-replicating Mycobacterium tuberculosis H37Rv in anaerobic condition at 1 ug/ml after 4 days by Wayne dormancy culture model
[12] = system: Mycobacterium tuberculosis; experiment: Bactericidal activity against 12-day old non-replicating Mycobacterium tuberculosis H37Rv in anaerobic condition at 1 ug/ml after 11 days by Wayne dormancy culture model
[13] = system: Mycobacterium tuberculosis; experiment: Bactericidal activity against 12-day old non-replicating Mycobacterium tuberculosis H37Rv in anaerobic condition at 8 ug/ml after 1 day by Wayne dormancy culture model
[14] = system: Mycobacterium tuberculosis; experiment: Bactericidal activity against 12-day old non-replicating Mycobacterium tuberculosis H37Rv in anaerobic condition at 8 ug/ml after 4 days by Wayne dormancy culture model
[15] = system: Mycobacterium tuberculosis; experiment: Bactericidal activity against 5-day old actively replicating Mycobacterium tuberculosis H37Rv in aerobic condition at 8 ug/ml by Wayne dormancy culture model
[16] = system: Mycobacterium tuberculosis; experiment: Bactericidal activity against 26-day old non-replicating Mycobacterium tuberculosis H37Rv in anaerobic condition at 8 ug/ml after 11 days by Wayne dormancy culture model
[17] = system: Mycobacterium tuberculosis; experiment: Bactericidal activity against 12-day old non-replicating Mycobacterium tuberculosis H37Rv in anaerobic condition at 8 ug/ml after 11 days by Wayne dormancy culture model
[18] = system: Mycobacterium tuberculosis; experiment: Bactericidal activity against 19-day old non-replicating Mycobacterium tuberculosis H37Rv in anaerobic condition at 8 ug/ml after 1 day by Wayne dormancy culture model
[19] = system: Mycobacterium tuberculosis; experiment: Bactericidal activity against 19-day old non-replicating Mycobacterium tuberculosis H37Rv in anaerobic condition at 8 ug/ml after 4 days by Wayne dormancy culture model
[20] = system: Mycobacterium tuberculosis; experiment: Bactericidal activity against 19-day old non-replicating Mycobacterium tuberculosis H37Rv in anaerobic condition at 8 ug/ml after 11 days by Wayne dormancy culture model
[21] = system: Mycobacterium tuberculosis; experiment: Bactericidal activity against 26-day old non-replicating Mycobacterium tuberculosis H37Rv in anaerobic condition at 8 ug/ml after 1 day by Wayne dormancy culture model
[22] = system: Mycobacterium tuberculosis; experiment: Bactericidal activity against 26-day old non-replicating Mycobacterium tuberculosis H37Rv in anaerobic condition at 8 ug/ml after 4 days by Wayne dormancy culture model

For `CO[C@H]1/C=C/O[C@@]2(C)Oc3c(C)c(O)c4c(O)c(c(/C=N/N5CCN(C)CC5)c(O)c4c3C2=O)NC(=O)/C(C)=C\C=C\[C@H](C)[C@H](O)[C@@H](C)[C@@H](O)[C@@H](C)[C@H](OC(C)=O)[C@@H]1C`, the Activity [1] was “Active”, the Activity [2] was “Active” and the Activity [3] was “Active”. The Activity [4] was “Active”, the Activity [5] was “Active” and the Activity [6] was “Active”. For the same molecule, the Activity [7] was “Active”, the Activity [8] was “Active” and the Activity [9] was “Active”. The Activity [10] was “Active”, the Activity [11] was “Active” and the Activity [12] was “Active”.

In the case of `Cc1ncc([N+](=O)[O-])n1CCO`, the Activity [13] is reported as “Active”, the Activity [14] is reported as “Active” and the Activity [15] is reported as “inactive”. The Activity [16] was “Active”, the Activity [17] was “Active” and the Activity [18] was “Active”. For the same molecule, the Activity [19] was “Active”, the Activity [20] was “Active” and the Activity [21] was “Active”. The Activity [22] was “Active”.

Reference: ChEMBL document CHEMBL1147100, “Metronidazole plus rifampin sterilizes long-term dormant Mycobacterium tuberculosis” (Antimicrob Agents Chemother, 2007)
